Results from patent publication US20240368122A1, “JAK2 INHIBITORS AND METHODS OF USE THEREOF” (RELAY THERAPEUTICS, INC., priority 2021, published 2024).
Read-outs that look alike come from different tables or passages of the source.

Key:
[1] = target: T1, JAK2 JH2 WT (V536-D812) [W659A, W777A, F794H solubilizing mutations] (Homo sapiens, UniProt O60674, F794H/W659A/W777A); test: Surface Plasmon Resonance (SPR) binding assay, JAK2 JH2 domain
T1 construct: **JAK2 JH2 WT (V536-D812) [W659A, W777A, F794H solubilizing mutations]; C-thrombin-avi-His6; thrombin cleavage site (C); His6 (C); purchased Biortus
In short: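 Kinetics came from 1:1 fits of single-cycle runs at 20 °C: four 3-fold dilutions from 5 uM for JH1 or 500 nM for JH2, 60 s association, and 300 s or 1200 s dissociation respectively. Protein was freshly captured per compound in the presence of 10 uM stabilizer compound, with running buffer of pH 7.5 HEPES/NaCl/glycerol/DTT plus 2% DMSO.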

JAK2 JH1 WT (T842-G1132) = target: T2, JAK2 JH1 WT (T842-G1132) (Homo sapiens, UniProt O60674); test: Surface Plasmon Resonance (SPR) binding assay, JAK2 JH1 domain; details: SPR, JAK2 JH1 domain
T2 construct: *JAK2 JH1 WT (T842-G1132) N-His60-avi-TEV; His6 (N); TEV cleavage site (N); purchased Biortus
Procedure: Selected compounds of the present disclosure were tested in a Surface Plasmon Resonance (SPR) Assay to measure their binding kinetics and affinity for proteins of interest.
Prepare buffer: 50 mM HEPES pH 7.5, 150 mM NaCl, 0.05% (v/v) Tween, and 10% (v/v) glycerol were combined and pH was adjusted to 7.5, then filtered. 5 mM DTT, was added, and buffer without DMSO was reserved for compound resuspension. 2% (v/v) DMSO was added for assay buffer, and separately 1% DMSO was used to make buffer for resuspending compounds.
Prepare compounds: Using a Bravo liquid handler, 99 μL of 1% (v/v) DMSO assay buffer was added to 1 μL compounds in DMSO.
Run 8K Method: Biotin CAPture (CAP) chip surface was regenerated prior to run by: Inserting CAP chip into Biacore 8K, prime machine with assay buffer with 2% (v/v) DMSO; Setting instrument temperature to 20° C.; Conditioning surface with NaOH/GdnHCl reagents from CAP chip kit (60 seconds, 10 μL/min); and Capturing oligo-Streptavidin (SA) reagent from CAP kit (600 seconds, 1 μL/min), expected capture ˜2500 RU. JAK2 JH1 or JH2 protein was immobilized by preparing a sample of 0.5 uM JH1 or 0.4 uM JH2 protein diluted in assay buffer without DMSO and supplemented with 10 uM of a selected compound of the invention as a stabilizer (370 seconds, 5 uL/min), expected capture ˜1000 RU. Remaining biotin sites on SA were blocked with 1 uM biotin (30 seconds, 20 uL/min), then equilibrated for 1800 seconds at 100 uL/min. Compounds being assayed were run in single cycle kinetics: 4 doses with a top concentration of 5 uM (JH1) or 500 nM (JH2), dilution factor of 3, at 20° C., for a contact time of 60 seconds, and a dissociation time of 300 seconds (JH1) or 1200 seconds (JH2), at a flow rate of 30 uL/min. The surface was completely regenerated after each compound is run, and JH1 or JH2 protein was immobilized fresh prior to each new compound. Data were fitted kinetically with 1:1 binding model using Biacore Insight Evaluation Software.

[2] = test system: TF1 JAK2 V617F STAT3 reporter; test: Cellular TF1 STAT3 assay (luciferase reporter), JAK2 V617F; type: cell-based; details: read-out: Cell PD-TF1 JAK2 V617F STAT3 (IC50)
In short: (§1)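 Compounds were dispensed as 1000× DMSO stocks (10 mM top, 1:3 steps), then V617F JAK2 TF1 cells carrying a STAT3 or STAT5 luciferase reporter were added. After 18-20 h at 37 °C, ONE-glo reagent was added and luminescence measured.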

[3] = test system: TF1 JAK2 V617F STAT5 reporter; test: Cellular TF1 STAT5 assay (luciferase reporter), JAK2 V617F; type: cell-based; details: read-out: Cell PD TF1 V617F STAT5 (IC50)
In short: as §1

[4] = Homo sapiens, TF-1, TF1 cells, JAK2 V617F

T2 sequence (O60674 842-1132): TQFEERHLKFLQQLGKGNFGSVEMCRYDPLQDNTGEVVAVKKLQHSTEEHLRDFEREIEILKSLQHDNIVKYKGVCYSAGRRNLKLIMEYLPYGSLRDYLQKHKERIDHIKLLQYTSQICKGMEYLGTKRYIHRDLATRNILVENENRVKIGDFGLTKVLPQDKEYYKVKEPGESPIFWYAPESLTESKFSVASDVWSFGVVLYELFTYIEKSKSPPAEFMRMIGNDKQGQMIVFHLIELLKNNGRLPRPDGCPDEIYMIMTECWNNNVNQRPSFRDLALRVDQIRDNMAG
T1 sequence (O60674 536-812 W659A/W777A/F794H): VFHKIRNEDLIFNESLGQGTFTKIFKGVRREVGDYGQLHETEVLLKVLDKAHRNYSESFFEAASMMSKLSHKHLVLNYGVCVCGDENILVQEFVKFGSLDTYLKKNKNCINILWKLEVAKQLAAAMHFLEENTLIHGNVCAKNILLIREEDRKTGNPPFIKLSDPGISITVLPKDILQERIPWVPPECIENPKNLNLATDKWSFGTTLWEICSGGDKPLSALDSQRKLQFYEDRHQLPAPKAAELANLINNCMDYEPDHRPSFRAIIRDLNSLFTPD

CNC(=O)c1nnc(NC(=O)C2CC2)cc1Nc1ccc(C)c(-c2ccc(C(=O)N(C)Cc3ccn(C)n3)nc2)c1OC [Compound 34]
Kd ([1]; SPR, JAK2 JH2 domain): 0.01 to 10 nM
Kd (JAK2 JH1 WT (T842-G1132)): 5000 to 100000 nM
IC50 ([2]; TF1 JAK2 V617F): 50 to 500 nM
IC50 ([3]; TF1 JAK2 V617F): 50 to 500 nM

CNC(=O)c1nnc(NC(=O)C2CC2)cc1Nc1cccc(-c2ccc(C(=O)N(C)Cc3cc(C#N)ccn3)nn2)c1OC [Compound 35]
Kd ([1]; SPR, JAK2 JH2 domain): 0.01 to 10 nM
Kd (JAK2 JH1 WT (T842-G1132)): 5000 to 100000 nM
IC50 ([2]; TF1 JAK2 V617F): 50 to 500 nM
IC50 ([3]; TF1 JAK2 V617F): 500 to 5000 nM

CNC(=O)c1nnc(NC(=O)C2CC2)cc1Nc1cccc(-c2cnc(C(=O)N(C)Cc3cc(C#N)ccn3)nc2)c1OC [Compound 36]
Kd ([1]; SPR, JAK2 JH2 domain): 0.01 to 10 nM
Kd (JAK2 JH1 WT (T842-G1132)): 5000 to 100000 nM
IC50 ([2]; TF1 JAK2 V617F): 50 to 500 nM
IC50 ([3]; TF1 JAK2 V617F): 50 to 500 nM

CNC(=O)c1nnc(NC(=O)C2CC2)cc1Nc1cccc(-c2cnc(C(=O)N(C)Cc3cc(C#N)ccn3)cn2)c1OC [Compound 37]
Kd ([1]; SPR, JAK2 JH2 domain): 0.01 to 10 nM
Kd (JAK2 JH1 WT (T842-G1132)): 5000 to 100000 nM
IC50 ([2]; TF1 JAK2 V617F): 50 to 500 nM
IC50 ([3]; TF1 JAK2 V617F): 50 to 500 nM

CNC(=O)c1nnc(NC(=O)C2CC2)cc1Nc1cccc(-c2cnn(C3CN(Cc4ccccn4)C3)c2)c1OC [Compound 39]
Kd ([1]; SPR, JAK2 JH2 domain): 0.01 to 10 nM
Kd (JAK2 JH1 WT (T842-G1132)): 500 to 5000 nM
IC50 ([2]; TF1 JAK2 V617F): 50 to 500 nM
IC50 ([3]; TF1 JAK2 V617F): 50 to 500 nM

CNC(=O)c1nnc(NC(=O)C2CC2)cc1Nc1cccc(-c2ccc(C(=O)N(C)Cc3ccnn3C)nc2)c1OC [Compound 40]
Kd ([1]; SPR, JAK2 JH2 domain): 0.01 to 10 nM
Kd (JAK2 JH1 WT (T842-G1132)): 5000 to 100000 nM
IC50 ([2]; TF1 JAK2 V617F): 500 to 5000 nM
IC50 ([3]; TF1 JAK2 V617F): 500 to 5000 nM

CNC(=O)c1nnc(NC(=O)C2CC2)cc1Nc1cccc(-c2cnn(C3CN(Cc4ccn(C)n4)C3)c2)c1OC [Compound 41]
Kd ([1]; SPR, JAK2 JH2 domain): 0.01 to 10 nM
Kd (JAK2 JH1 WT (T842-G1132)): 500 to 5000 nM
IC50 ([2]; TF1 JAK2 V617F): 50 to 500 nM
IC50 ([3]; TF1 JAK2 V617F): 50 to 500 nM

CNC(=O)c1nnc(NC(=O)C2CC2)cc1Nc1ccc(C)c(-c2cnc(C(=O)N(C)Cc3cc(C#N)ccn3)c(F)c2)c1OC [Compound 42]
Kd ([1]; SPR, JAK2 JH2 domain): 0.01 to 10 nM
Kd (JAK2 JH1 WT (T842-G1132)): 5000 to 100000 nM
IC50 ([2]; TF1 JAK2 V617F): 50 to 500 nM
IC50 ([3]; TF1 JAK2 V617F): 50 to 500 nM

CNC(=O)c1nnc(NC(=O)C2CC2)cc1Nc1ccc(C)c(-c2cnc(C(=O)N(C)Cc3ccccn3)c(F)c2)c1OC [Compound 43]
Kd ([1]; SPR, JAK2 JH2 domain): 0.01 to 10 nM
Kd (JAK2 JH1 WT (T842-G1132)): 5000 to 100000 nM
IC50 ([2]; TF1 JAK2 V617F): 500 to 5000 nM
IC50 ([3]; TF1 JAK2 V617F): 500 to 5000 nM

CNC(=O)c1nnc(NC(=O)C2CC2)cc1Nc1cccc(-c2ccc(C3CN(Cc4ccc5c(n4)CCC5)C3)nc2)c1OC [Compound 385]
Kd [1]: 50 to 500 nM
IC50 [2, 4]: 5000 to 100000 nM
IC50 [3, 4]: 500 to 5000 nM

CNC(=O)c1nnc(NC(=O)C2CC2)cc1Nc1cccc(-c2ccc(C3CN(Cc4ccc(Cl)cn4)C3)nc2)c1OC [Compound 388]
Kd [1]: 50 to 500 nM
IC50 [2, 4]: 5000 to 100000 nM
IC50 [3, 4]: 500 to 5000 nM

CCOc1cccc(CN2CC(c3ccc(-c4cccc(Nc5cc(NC(=O)C6CC6)nnc5C(=O)NC)c4OC)cn3)C2)n1 [Compound 389]
Kd [1]: 50 to 500 nM
IC50 [2, 4]: 5000 to 100000 nM
IC50 [3, 4]: 500 to 5000 nM

CNC(=O)c1nnc(NC(=O)C2CC2)cc1Nc1cccc(-c2ccc(C3CN(Cc4cccc(C(F)(F)F)n4)C3)nc2)c1OC [Compound 391]
Kd [1]: 10 to 50 nM
IC50 [2, 4]: 5000 to 100000 nM
IC50 [3, 4]: 500 to 5000 nM

CCS(=O)(=O)c1ccnc(CN(C)C(=O)c2ccc(-c3cccc(Nc4cc(NC(=O)C5CC5)nnc4C(=O)NC)c3OC)cn2)c1 [Compound 394]
Kd [1]: 0.01 to 10 nM
IC50 [2, 4]: 10 to 50 nM
IC50 [3, 4]: 10 to 50 nM

[2H]C([2H])(c1cccnn1)N1CC(n2cc(-c3cccc(Nc4cc(NC(=O)C5CC5)nnc4C(=O)NC)c3OC)cn2)C1 [Compound 408]
Kd ([1]; SPR, JAK2 JH2 domain): 0.01 to 10 nM
IC50 [2, 4]: 50 to 500 nM
IC50 [3, 4]: 50 to 500 nM

[2H]C([2H])(c1cccc(C#N)n1)N1CC(n2cc(-c3cccc(Nc4cc(NC(=O)C5CC5)nnc4C(=O)NC)c3OC)cn2)C1 [Compound 409]
Kd ([1]; SPR, JAK2 JH2 domain): 0.01 to 10 nM
IC50 [2, 4]: 50 to 500 nM
IC50 [3, 4]: 50 to 500 nM
